Experimental data as given in US9739733B2, “Methods for monitoring tight clot formation” (T2 Biosystems, Inc., priority 2012, dated 2017).

Tests used:
[1] = test system: platelets in whole blood; assay: T2MR platelet-induced clot contraction with platelet agonist, uncoated polypropylene tube; type: cell-based, human
Excerpt: Platelet-induced clot contraction was used for measuring platelet activity and inhibition using a formulation of reptilase (RF), factor XIIIa (FXIIIa), and platelet agonist such as arachidonic acid (AA) or adenosine diphosphate (ADP). The RF and FXIIIa induce the formation of a fibrin mesh rapidly without activating platelets. This occurs rapidly as compared to clot contraction. In developing a platelet activity assay for the agonist arachidonic acid (AA) we were able to see reproducible […] signatures that titrated with the concentration of AA as expected ([…] curves acquired from whole blood with 0.5 mM, 1.0 mM, and 1.5 mM AA). In a typical clot contraction signal there is an upper […] signal that increases rapidly between 5 and 10 minutes and the appearance of a lower […] signal around the same point in time. The upper signal corresponds to water excreted from the clot and the lower signal corresponds to water trapped in the contracted clot. The lowest level has the slowest kinetics. […] In developing a platelet activity assay for the agonist ADP we encountered a problem with reproducibility. For example, in triplicate measures (3 samples obtained in parallel from freshly drawn blood) the clot contraction signal might appear for only one sample and/or the triplicate measures might vary in the signal intensity of the clot contraction signal. Reproducible results were obtained from AA, but not ADP. This is believed to result from the fact that AA is a stronger platelet activator than ADP. This conclusion is supported by the following observations. […] Second, aging the blood could lead to stronger clot contraction signals, presumably due to basal thrombin activation that led to more platelet induced clot contraction. Third, adding low levels of thrombin could lead to more platelet induced clot contraction. Therefore, there is a difference in the strength of platelet activation for AA and ADP.

[2] = test system: platelets in blood samples; assay: T2MR ADP activation titration in Triton X-100 coated polypropylene tubes; type: cell-based, human; details: Triton X-100 coated tube
Procedure: Platelet-induced clot contraction was used for measuring platelet activity and inhibition using a formulation of reptilase (RF), factor XIIIa (FXIIIa), and platelet agonist such as arachidonic acid (AA) or adenosine diphosphate (ADP). The RF and FXIIIa induce the formation of a fibrin mesh rapidly without activating platelets. This occurs rapidly as compared to clot contraction. Briefly, blood samples were activated with varying levels of ADP in 0.2 mL polypropylene tubes coated with Triton X-100. […] Additionally, levels below […] are now able to show a clot contraction signal when the polypropylene surface is coated with Triton X-100. Furthermore, this signal is much stronger than that previously observed for ADP activated samples in polypropylene tubes without coating.

[3] = T2MR fibrinogen assay with thrombin; set-up: species or system human; details: 45 μM MnSO4 in buffer diluent
Procedure: T2MR measures the formation of fibrin directly in the whole blood or plasma in the presence of thrombin. The solution of thrombin (STAGO, 5 U/mL) is added to the diluted solution of plasma (or blood) and the change in T2 signal is monitored. The sample begins to clot immediately upon addition of thrombin, resulting in a rapid decrease in T2 signal. In order to achieve better sample relaxation rate and reduce noise in the measured T2 signal the paramagnetic material (MnSO4) is added to the buffer diluent (STAGO, Owren-Koller buffer), with a final concentration of the MnSO4 in diluent of 45 μM. […] The buffer diluent containing paramagnetic material is used to prepare thrombin 5 U/mL stock by diluting 80 U/mL stock and to prepare standard dilutions for the calibration curve.

[4] = PT clotting time, T2MR and Stago; set-up: species or system human; details: spiked 10 ng/mL-1000 ng/mL
Procedure: Clotting times were measured by […] by first establishing a time zero T2 value (i.e., by taking the first point or some sort of average or linear fit to the first 5-10 data points) of the T2 time curve, and second identifying the time point (i.e., the clotting time or PT time) in the T2 time curve when the T2 value had changed by a predetermined amount (e.g. 5% or 10%) indicative of clotting in the sample. From the observed PT clotting time the INR was calculated using the methods described in Jan et al., Clin. Chem. 35:840 (1989). […] 18 normal samples and 24 abnormal samples were tested against a reference range established by 20 normal samples. Abnormal samples with prolonged PT times were obtained by spiking increasing levels of the anti-Xa inhibitor Rivaroxiban (10 ng/mL-1000 ng/mL). Correlation with TEG clotting time was obtained across >40 normal patient samples with non-optimized R2 correlation of >0.8. (see FIG. 14B). PT time correlations with Stago for plasma (see FIG. 14D) and with Hemochron for whole blood (see FIG. 14C) were also found.

[5] = test system: platelet activity; assay: T2MR platelet inhibition, heparin blood activated by AA+RF; type: cell-based, human; details: 600 μM aspirin ex vivo
Procedure: In this experiment platelet inhibition was monitored by the addition of 600 μM aspirin ex vivo to heparin blood prior to activation by AA+RF (samples were tested with and without aspirin). […] These studies confirmed that the clot signature was dependent on platelet activity.

[6] = test system: platelets in whole blood; details: 5-20 μM epinephrine
Procedure: A titration of epinephrine ranging from 5-20 μM was added to the activation cocktail (comprised of reptilase, factor XIIIa, calcium, and platelet activator). 4 μL of the activation cocktail was added to 36 μL of whole blood in a coated tube. The tube containing the reaction was placed in a T2MR reader. T2MR relaxation curve data was processed with an Inverse Laplace transformation algorithm.

[7] = test system: platelets; assay: Tube-dried collagen as platelet activator, T2MR; type: cell-based; details: 2 micrograms dried in microtube; whole blood and RBC-depleted plasma
Procedure: Collagen is a potent activator of platelets, and recognition of exposed collagen from the cellular matrix is one of the in vivo signals for platelet activation. […] To prepare the tube, 2 micrograms (2 μL of a 1 mg/ml solution) was deposited in the bottom of a microtube and the tube placed at 37° C. for 2-5 hours. A tube prepared in this way can be kept at room temperature or at 37° C. for several weeks. To measure a T2MR signature 34 μL of citrated whole blood (or RBC-depleted blood) were added to the tube at 37 degrees; after 1 minute 2 μL of 0.2M CaCl2 was added and the sample placed in the magnet for relaxation measurements and analysis.

CCCCC/C=C\C/C=C\C/C=C\C/C=C\CCCC(=O)O [AA, arachidonic acid]
concentration that typically causes clot retraction [1]: 0.5 to 1 mM | platelet-induced clot contraction ([1]; typical level of AA): strong platelet-induced clot contraction

Nc1ncnc2c1ncn2[C@@H]1O[C@H](COP(=O)(O)OP(=O)(O)O)[C@@H](O)[C@H]1O [ADP, adenosine diphosphate]
clot formation T2MR signal ([2]; 2.5 mM ADP): partial clot formation is observed | clot formation T2MR signal ([2]; 0.5 and 1 mM ADP): no clot formation signal is observed | clot formation T2MR signal ([2]; 5, 10, 20 mM ADP): complete clot formation is observed | clot retraction after gel phase ([1]; ADP activation): retraction does not occur | platelet-induced clot contraction ([1]; ten-fold excess (over standard levels) of ADP): weak and irreproducible platelet-induced clot contraction

O=S(=O)([O-])[O-].[Mn+2] [MnSO4]
effect on the clotting process [3]: no significant effect

O=C(NC[C@H]1CN(c2ccc(N3CCOCC3=O)cc2)C(=O)O1)c1ccc(Cl)s1 [Rivaroxiban]
PT times [4]: prolonged

CC(=O)Oc1ccccc1C(=O)O [aspirin, acetylsalicylic acid]
clot-associated T2 signal [5]: dramatically diminished or absent

CNC[C@H](O)c1ccc(O)c(O)c1 [epinephrine]
sample response (clot contraction) [6]: responsive | timing of clot contraction [6]: dose dependent

collagen
T2MR clot peak [7]: effectively generate a T2MR clot peak
